Experimental data: patent US6525001B1, “Substituted pyrimidine and pyridine herbicides” (Mid-American Commercialization Corporation, priority 1997, dated 2003)

How the values were obtained:
Assay type in all cases: in vivo
[1] = tested on: blackgrass (Alopecurus myosuroides); test: Test B pre-/postemergence; design: key: 0 is no effect; 10 is complete control
Outline: (§1)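 Compounds in a surfactant-containing, non-phytotoxic solvent blend are applied to freshly planted seed (preemergence) and, concurrently, to seedlings of 2 to 18 cm at 1–4 leaves (postemergence). Plants stay in the greenhouse twelve to sixteen days and are then scored visually from 0 (no effect) to 10 (complete control).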

[2] = tested on: cocklebur (Xanthium strumarium); test: Test B pre-/postemergence; design: key: 0 is no effect; 10 is complete control
Outline: as §1

corn (Zea mays) = test: Test B pre-/postemergence; design: key: 0 is no effect; 10 is complete control
Outline: as §1

[3] = tested on: crabgrass (Digitaria sanguinalis); test: Test B pre-/postemergence; design: key: 0 is no effect; 10 is complete control
Outline: as §1

[4] = tested on: pigweed (Amaranthus retroflexus); test: Test B pre-/postemergence; design: key: 0 is no effect; 10 is complete control
Outline: as §1

[5] = tested on: purple nutsedge (Cyperus rotundus); test: Test B pre-/postemergence; design: key: 0 is no effect; 10 is complete control
Outline: as §1

rape (Brassica napus) = test: Test B pre-/postemergence; design: key: 0 is no effect; 10 is complete control
Outline: as §1

soybean (Glycine max) = test: Test B pre-/postemergence; design: key: 0 is no effect; 10 is complete control
Outline: as §1

[6] = tested on: sugar beet (Beta vulgaris); test: Test B pre-/postemergence; design: key: 0 is no effect; 10 is complete control
Outline: as §1

[7] = tested on: velvetleaf (Abutilon theophrasti); test: Test B pre-/postemergence; design: key: 0 is no effect; 10 is complete control
Outline: as §1

[8] = tested on: wheat (Triticum aestivum); test: Test B pre-/postemergence; design: key: 0 is no effect; 10 is complete control
Outline: as §1

[9] = tested on: bamyardgrass (Echinochloa crus-galli); test: Test B flood test; settings: for Plant response rating, Barnyardgrass: Postemergence (flood test species)
Outline: (§2)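 Read-out is a visual response score from 0 (no effect) to 10 (complete control), assigned by comparison with untreated controls. Treatment was applied at the 2-leaf stage, and plants stayed in the greenhouse for twelve to sixteen days before scoring.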

[10] = tested on: duck salad (Heteranthera limosa); test: Test B flood test; settings: for Plant response rating, Ducksalad: Postemergence (flood test species)
Outline: as §2

rice (Oryza sativa) = test: Test B flood test; settings: for Plant response rating, Rice: Postemergence (flood test species)
Outline: as §2

[11] = tested on: smallflower flatsedge (Cyperus difformis); test: Test B flood test; settings: for Plant response rating, S. Flatsedge: Postemergence (flood test species)
Outline: as §2

[12] = Preemergence, Rate 62 g/ha, scale of 0 to 10
[13] = Rate 62 g/ha, Postemergence (flood test)
[14] = Rate 125 g/ha, Postemergence section (flood test species)

Structure (SMILES): Cc1cnc(-c2ccc(C(F)(F)F)cc2)nc1C(=O)c1cccc(C(F)(F)F)c1 [Compound 73]
- Plant response rating, Blackgrass [1, 12]: 8
- Blackgrass plant response rating ([1]; Rate 62 g/ha, Postemergence): 7
- Blackgrass plant response rating ([1]; Rate 125 g/ha, Postemergence): 7
- Plant response rating, Blackgrass ([1]; Rate 125 g/ha, Preemergence): 9
- Plant response rating, Blackgrass ([1]; Rate 250 g/ha, Postemergence): 9
- Plant response rating, Blackgrass ([1]; Rate 250 g/ha, Preemergence): 10
- Plant response rating, Blackgrass ([1]; Rate 500 g/ha, Postemergence): 9
- Plant response rating, Blackgrass ([1]; Rate 500 g/ha, Preemergence): 10
- Plant response rating, Cocklebur [2, 12]: 0
- Cocklebur plant response rating ([2]; Rate 62 g/ha, Postemergence): 9
- Cocklebur plant response rating ([2]; Rate 125 g/ha, Postemergence): 9
- Plant response rating, Cocklebur ([2]; Rate 125 g/ha, Preemergence): 1
- Plant response rating, Cocklebur ([2]; Rate 250 g/ha, Postemergence): 9
- Plant response rating, Cocklebur ([2]; Rate 250 g/ha, Preemergence): 7
- Plant response rating, Cocklebur ([2]; Rate 500 g/ha, Postemergence): 8
- Plant response rating, Corn (corn (Zea mays); [12]): 1
- Corn plant response rating (corn (Zea mays); Rate 62 g/ha, Postemergence): 2
- Corn plant response rating (corn (Zea mays); Rate 125 g/ha, Postemergence): 3
- Plant response rating, Corn (corn (Zea mays); Rate 125 g/ha, Preemergence): 1
- Plant response rating, Corn (corn (Zea mays); Rate 250 g/ha, Postemergence): 3
- Plant response rating, Corn (corn (Zea mays); Rate 250 g/ha, Preemergence): 2
- Plant response rating, Corn (corn (Zea mays); Rate 500 g/ha, Postemergence): 3
- Plant response rating, Corn (corn (Zea mays); Rate 500 g/ha, Preemergence): 2
- Plant response rating, Crabgrass [3, 12]: 10
- Crabgrass plant response rating ([3]; Rate 62 g/ha, Postemergence): 7
- Crabgrass plant response rating ([3]; Rate 125 g/ha, Postemergence): 9
- Plant response rating, Crabgrass ([3]; Rate 125 g/ha, Preemergence): 10
- Plant response rating, Crabgrass ([3]; Rate 250 g/ha, Postemergence): 9
- Plant response rating, Crabgrass ([3]; Rate 250 g/ha, Preemergence): 10
- Plant response rating, Crabgrass ([3]; Rate 500 g/ha, Postemergence): 9
- Plant response rating, Crabgrass ([3]; Rate 500 g/ha, Preemergence): 10
- Plant response rating, Redroot pigweed [4, 12]: 9
- Redroot pigweed plant response rating ([4]; Rate 62 g/ha, Postemergence): 9
- Redroot pigweed plant response rating ([4]; Rate 125 g/ha, Postemergence): 9
- Plant response rating, Redroot pigweed ([4]; Rate 125 g/ha, Preemergence): 10
- Plant response rating, Redroot pigweed ([4]; Rate 250 g/ha, Postemergence): 10
- Plant response rating, Redroot pigweed ([4]; Rate 250 g/ha, Preemergence): 10
- Plant response rating, Redroot pigweed ([4]; Rate 500 g/ha, Postemergence): 10
- Plant response rating, Redroot pigweed ([4]; Rate 500 g/ha, Preemergence): 10
- Plant response rating, Nutsedge [5, 12]: 0
- Nutsedge plant response rating ([5]; Rate 62 g/ha, Postemergence): 0
- Nutsedge plant response rating ([5]; Rate 125 g/ha, Postemergence): 0
- Plant response rating, Nutsedge ([5]; Rate 125 g/ha, Preemergence): 0
- Plant response rating, Nutsedge ([5]; Rate 250 g/ha, Postemergence): 2
- Plant response rating, Nutsedge ([5]; Rate 250 g/ha, Preemergence): 0
- Plant response rating, Nutsedge ([5]; Rate 500 g/ha, Preemergence): 0
- Plant response rating, Rape (rape (Brassica napus); [12]): 2
- Rape plant response rating (rape (Brassica napus); Rate 62 g/ha, Postemergence): 10
- Rape plant response rating (rape (Brassica napus); Rate 125 g/ha, Postemergence): 10
- Plant response rating, Rape (rape (Brassica napus); Rate 125 g/ha, Preemergence): 6
- Plant response rating, Rape (rape (Brassica napus); Rate 250 g/ha, Postemergence): 10
- Plant response rating, Rape (rape (Brassica napus); Rate 250 g/ha, Preemergence): 6
- Plant response rating, Rape (rape (Brassica napus); Rate 500 g/ha, Postemergence): 10
- Plant response rating, Rape (rape (Brassica napus); Rate 500 g/ha, Preemergence): 10
- Plant response rating, Soybean (soybean (Glycine max); [12]): 0
- Soybean plant response rating (soybean (Glycine max); Rate 62 g/ha, Postemergence): 8
- Soybean plant response rating (soybean (Glycine max); Rate 125 g/ha, Postemergence): 9
- Plant response rating, Soybean (soybean (Glycine max); Rate 125 g/ha, Preemergence): 1
- Plant response rating, Soybean (soybean (Glycine max); Rate 250 g/ha, Postemergence): 9
- Plant response rating, Soybean (soybean (Glycine max); Rate 250 g/ha, Preemergence): 1
- Plant response rating, Soybean (soybean (Glycine max); Rate 500 g/ha, Postemergence): 6
- Plant response rating, Soybean (soybean (Glycine max); Rate 500 g/ha, Preemergence): 2
- Plant response rating, Sugarbeets [6, 12]: 9
- Sugarbeets plant response rating ([6]; Rate 62 g/ha, Postemergence): 10
- Sugarbeets plant response rating ([6]; Rate 125 g/ha, Postemergence): 10
- Plant response rating, Sugarbeets ([6]; Rate 125 g/ha, Preemergence): 9
- Plant response rating, Sugarbeets ([6]; Rate 250 g/ha, Postemergence): 9
- Plant response rating, Sugarbeets ([6]; Rate 250 g/ha, Preemergence): 10
- Plant response rating, Sugarbeets ([6]; Rate 500 g/ha, Postemergence): 9
- Plant response rating, Sugarbeets ([6]; Rate 500 g/ha, Preemergence): 10
- Plant response rating, Velvetleaf [7, 12]: 2
- Velvetleaf plant response rating ([7]; Rate 62 g/ha, Postemergence): 9
- Velvetleaf plant response rating ([7]; Rate 125 g/ha, Postemergence): 9
- Plant response rating, Velvetleaf ([7]; Rate 125 g/ha, Preemergence): 4
- Plant response rating, Velvetleaf ([7]; Rate 250 g/ha, Postemergence): 9
- Plant response rating, Velvetleaf ([7]; Rate 250 g/ha, Preemergence): 7
- Plant response rating, Velvetleaf ([7]; Rate 500 g/ha, Postemergence): 10
- Plant response rating, Velvetleaf ([7]; Rate 500 g/ha, Preemergence): 8
- Plant response rating, Wheat [8, 12]: 2
- Wheat plant response rating ([8]; Rate 62 g/ha, Postemergence): 4
- Wheat plant response rating ([8]; Rate 125 g/ha, Postemergence): 4
- Plant response rating, Wheat ([8]; Rate 125 g/ha, Preemergence): 4
- Plant response rating, Wheat ([8]; Rate 250 g/ha, Postemergence): 5
- Plant response rating, Wheat ([8]; Rate 250 g/ha, Preemergence): 7
- Plant response rating, Wheat ([8]; Rate 500 g/ha, Postemergence): 6
- Plant response rating, Wheat ([8]; Rate 500 g/ha, Preemergence): 9
- Barnyardgrass plant response rating [9, 13]: 4
- Barnyardgrass plant response rating [9, 14]: 5
- Plant response rating, Barnyardgrass ([9]; Rate 250 g/ha): 6
- Plant response rating, Barnyardgrass ([9]; Rate 500 g/ha): 4
- Ducksalad plant response rating [10, 13]: 1
- Ducksalad plant response rating [10, 14]: 1
- Plant response rating, Ducksalad ([10]; Rate 250 g/ha): 2
- Plant response rating, Ducksalad ([10]; Rate 500 g/ha): 3
- Rice plant response rating (rice (Oryza sativa); [13]): 5
- Rice plant response rating (rice (Oryza sativa); [14]): 5
- Plant response rating, Rice (rice (Oryza sativa); Rate 250 g/ha): 6
- Plant response rating, Rice (rice (Oryza sativa); Rate 500 g/ha): 3
- S. Flatsedge plant response rating [11, 13]: 3
- S. Flatsedge plant response rating [11, 14]: 3
- Plant response rating, S. Flatsedge ([11]; Rate 250 g/ha): 6
- Plant response rating, S. Flatsedge ([11]; Rate 500 g/ha): 3
